Source: patent US20240109893A1, “PREPARATION AND APPLICATION METHOD OF HETEROCYCLIC COMPOUNDS AS KRAS INHIBITOR” (SHANGHAI KECHOW PHARMA, INC., priority 2020, published 2024)

Test system: H358 cells
Experiment: Cell activity experiment: activity test of H358 cells (MTT, 5 days)
Assay type: cell-based
Details: 5 days incubation, absorbance 492 nm
Procedure, shortened: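 H358 cells seeded 90 μL at 55555 cells/mL, grown 24 h, then exposed to 3-fold serial compound dilutions (final top 10000 nM, 0.5% DMSO) in triplicate for 5 days at 37° C., 5% CO2. Viability by MTT (4 h), formazan dissolved in DMSO, absorbance at 492 nm.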

Compound | IC50 (Homo sapiens, NCI-H358, 120 h) | IC50
C=CC(=O)N1CCN(c2nc(OCC34CCCN3CCC4)nc3cc(-c4cncc5c4CCCC5)ccc23)C[C@@H]1CC#N [Example 146, (S)-2-(1-acryloyl-4-(2-((tetrahydro-1H-pyrrolizin-7a(5H)-yl)methoxy)-7-(5,6,7,8-tetrahydroisoquinolin-4-yl)quinazolin-4-yl)piperazin-2-yl)acetonitrile] | 10 nM | 
C=C(F)C(=O)N1CCN(c2nc(OCC3(CN4CCCC4)CC3)nc3c(F)c(-c4cccc5c4C4CC4C5)ccc23)C[C@@H]1CC#N (single isomer, unassigned) [Example 870] | 7.2 nM | 
C=C(F)C(=O)N1CCN(c2nc(OC[C@@]34CCCN3C[C@H](F)C4)nc3c(F)c(-c4cccc5c4[C@@H]4C[C@@H]4C5)ncc23)C[C@@H]1CC#N [Example 72] | 8 nM | 
C=CC(=O)N1CCN(c2nc(OC[C@@H]3CCCN3C)nc3cc(-c4cccc5c4CCCC5)c(Cl)cc23)C[C@@H]1CC#N [Example 75, 2-((S)-1-acryloyl-4-(6-chloro-2-(((S)-1-methylpyrrolidin-2-yl)methoxy)-7-(5,6,7,8-tetrahydronaphthalen-1-yl)quinazolin-4-yl)piperazin-2-yl)acetonitrile] | 86 nM | 
C=CC(=O)N1CCN(c2nc(OC[C@@H]3C[C@@H](F)CN3C)nc3cc(-c4cccc5ccc(F)c(Cl)c45)ccc23)C[C@@H]1CC#N [Example 95] | 8 nM | 
C=CC(=O)N1CC[C@H]2[C@H]1CN2c1nc(OC[C@@]23CCCN2C[C@H](F)C3)nc2cc(-c3cccc4ccc(F)c(Cl)c34)c(Cl)cc12 [Example 475] |  | 25 nM
C=CC(=O)N1CC[C@H]2[C@H]1CN2c1c(Cl)c(-c2cccc3c2CCCC3)cc2nc(OC[C@@]34CCCN3C[C@H](F)C4)ncc12 [Example 473] |  | 35 nM
C=CC(=O)N1CCN(C2=C(C#N)C(OC[C@@H]3CCCN3C)=NC3C=C(c4cccc5ccc(F)c(Cl)c45)C=CC23)C[C@@H]1CC#N (some centres unmarked) [Example 623] | 200 nM | 
C=CC(=O)N1CCN(c2nc(OC[C@@H]3CCCN3C)nc3cc(-c4cncc5cccc(Cl)c45)ccc23)C[C@@H]1CC#N [Example 126, 2-((S)-1-acryloyl-4-(7-(5-chloroisoquinolin-4-yl)-2-((((S)-1-methylpyrrolidin-2-yl)methoxy)quinazolin-4-yl])piperazin-2-yl)acetonitrile] | 18 nM | 
C=CC(=O)N1CCN(c2nc(OC[C@@H]3CCCN3C)nc3cc(-c4cncc5c4CCCC5)ccc23)C[C@@H]1CC#N [Example 142] | 20 nM | 
C=C(F)C(=O)N1CC[C@@H]2[C@H]1CN2c1nc(OC[C@@H]2C[C@@H](F)CN2C)nc2c(F)c(-c3cncc4c3CCCC4)ncc12 [Example 44] | 64 nM | 
C=CC(=O)N1CC[C@@H]2[C@H]1CN2c1nc(OC[C@@]23CCCN2C[C@H](F)C3)nc2c(F)c(-c3cncc4c3CCCC4)ncc12 [Example 47] | 6.5 nM | 
C=CC(=O)N1CCN(c2nc(OC[C@@]34CCCN3C[C@H](F)C4)nc3cc(-c4cccc5cccc(Cl)c45)ccc23)C[C@@H]1CC#N [Example 83] | 3.2 nM | 
C=CC(=O)N1CCN(c2nc(OC[C@@H]3CCCN3C)nc3c(F)c(-c4cncc5c4CCCC5)ncc23)C[C@@H]1CC#N [Example 33, 2-((S)-1-acryloyl-4-(8-fluoro-2-(((S)-1-methylpyrrolidin-2-yl)methoxy)-7-(5,6,7,8-tetrahydroisoquinoline-4-yl)pyridino[4,3-d]pyrimidin-4-yl)piperazin-2-yl)acetonitrile] | 25 nM | 
C=CC(=O)N1CCN(c2nc(OCC34CCCN3C[C@H](F)C4)nc3cc(-c4cncc5cccc(Cl)c45)ccc23)C[C@@H]1CC#N (some centres unmarked) [Example 132] | 3 nM | 
C=C(F)C(=O)N1CCN(C2=C(C#N)C(OC[C@@]34CCCN3C[C@H](F)C4)=NC3C=C(c4cccc5ccc(F)c(Cl)c45)C=CC23)C[C@@H]1CC#N (some centres unmarked) [Example 629] | 120 nM | 
C=CC(=O)N1CCN(c2nc(OC[C@@]34CCCN3C[C@H](F)C4)nc3c(F)c(-c4cccc5c4[C@@H]4C[C@@H]4C5)ncc23)C[C@@H]1CC#N [Example 71] | 0.2 nM | 
C=C(F)C(=O)N1CCN(c2nc(OC[C@@H]3CCCN3C)nc3c(F)c(-c4cccc5c4CC4CC54)ccc23)C[C@@H]1CC#N (single isomer, unassigned) [Example 884] |  | 1260 nM
C=CC(=O)N1CCN(c2nc(OC[C@@]34CCCN3C[C@H](F)C4)nc3c(F)c(-c4cccc5c4CC4CC54)ncc23)C[C@@H]1CC#N (single isomer, unassigned) [Example 878] | 236 nM | 
C=C(F)C(=O)N1CC[C@@H]2[C@H]1CN2c1nc(OC[C@@]23CCCN2C[C@H](F)C3)nc2c(F)c(-c3cncc4c3CCCC4)ncc12 [Example 48] | 20 nM | 
C=CC(=O)N1CCN(c2nc(OC[C@@H]3CCCN3C)nc3c(F)c(-c4cccc5c4[C@@H]4C[C@@H]4C5)ncc23)C[C@@H]1CC#N [Example 58, 2-((S)-1-acryloyl-4-(8-fluoro-2-(((S)-1-methylpyrrolidin-2-yl)methoxy)-7-((1aR,6aR)-1,1a,6,6a-tetrahydrocyclopropa[a]inden-2-yl)pyridino[4,3-d]pyrimidin-4-yl)piperazin-2-yl)acetonitrile] | 0.81 nM | 

Compound | IC50 (Homo sapiens, NCI-H358, 120 h) | IC50
C=C(F)C(=O)N1CCN(c2nc(OCC34CCCN3CCC4)nc3cc(-c4cncc5c4CCCC5)ccc23)C[C@@H]1CC#N [Example 147] | 18 nM | 
C=C(F)C(=O)N1CCN(c2nc(OCC34CCCN3C[C@H](F)C4)nc3cc(-c4cncc5c4CCCC5)ccc23)C[C@@H]1CC#N (some centres unmarked) [Example 149] | 10 nM | 
C=CC(=O)N1CCN(c2nc(OC[C@@]34CCCN3C[C@H](F)C4)nc3c(F)c(-c4cccc5c4CC4CC54)ncc23)C[C@@H]1CC#N (single isomer, unassigned) [Example 877] |  | 9.5 nM
C=CC(=O)N1CCN(c2nc(OCC34CCCN3C[C@H](F)C4)nc3cc(-c4cccc5c4CCCC5)ccc23)C[C@@H]1CC#N (some centres unmarked) [Example 116] | 15 nM | 
C=CC(=O)N1CCN(c2nc(OC[C@@H]3CCCN3C)nc3c(F)c(-c4cccc5c4CCCC5)c(Cl)cc23)C[C@@H]1CC#N [Example 74] |  | 25 nM
C=CC(=O)N1CCC2[C@H]1CN2c1nc(OC[C@@H]2CCCN2C)nc2c(F)c(-c3cccc4c3CCCC4)ccc12 (some centres unmarked) [Example 369] | 20 nM | 
C=CC(=O)N1CCN(c2nc(OC[C@@H]3C[C@@H](F)CN3C)nc3c(F)c(-c4cccc5cccc(Cl)c45)ccc23)C[C@@H]1CC#N [Example 361] | 5 nM | 
C=CC(=O)N1CCN(c2nc(OC[C@@H]3CCCN3C)nc3nc(-c4cccc5c4CCCC5)ccc23)C[C@@H]1CC#N [Example 77, 2-((S)-1-acryloyl-4-(2-(((S)-1-methylpyrrolidin-2-yl)methoxy)-7-(5,6,7,8-tetrahydronaphthalen-1-yl)pyridino[2,3-d]pyrimidin-4-yl)piperazin-2-yl)acetonitrile] | 55 nM | 
C=C(F)C(=O)N1CCN(c2nc(OCC3(CN4CCCC4)CC3)nc3c(F)c(-c4cccc5c4C4CC4C5)ncc23)C[C@@H]1CC#N (single isomer, unassigned) [Example 867] | 5.9 nM | 
C=CC(=O)N1CCN(c2nc(OC[C@@H]3CCCN3C)nc3c(F)c(-c4cccc5ccc(F)c(Cl)c45)c(F)cc23)C[C@@H]1CC#N [Example 431] | 148 nM | 
C=C(F)C(=O)N1CCN(c2nc(OC[C@@H]3CCCN3C)nc3cc(-c4cncc5cccc(Cl)c45)ccc23)C[C@@H]1CC#N [Example 127] | 72 nM | 
C=CC(=O)N1CCN(c2nc(OC[C@@H]3C[C@@H](F)CN3C)nc3c(F)c(-c4cccc5ccc(F)c(Cl)c45)ccc23)C[C@@H]1CC#N [Example 362] | 4.6 nM | 
C=C(F)C(=O)N1CCN(c2nc(OC[C@@]34CCCN3C[C@H](F)C4)nc3c(F)c(-c4cccc5c4CC4CC54)ncc23)C[C@@H]1CC#N (single isomer, unassigned) [Example 880] |  | 433 nM
C=C(F)C(=O)N1CC[C@@H]2[C@H]1CN2c1nc(OCC23CCCN2CCC3)nc2c(F)c(-c3ccc(F)c4c3CCCC4)ncc12 [Example 30] | 60 nM | 
C=CC(=O)N1CC[C@H]2[C@H]1CN2c1nc(OC[C@@]23CCCN2C[C@H](F)C3)nc2cc(-c3cccc4cccc(Cl)c34)c(Cl)cc12 [Example 474] |  | 30 nM
C=C(F)C(=O)N1CCN(c2nc(OC[C@@H]3CCCN3C)nc3c(F)c(-c4cncc5c4CCCC5)ncc23)C[C@@H]1CC#N [Example 34, 2-((S)-4-(8-fluoro-2-(((S)-1-methylpyrrolidin-2-yl)methoxy)-7-(5,6,7,8-tetrahydroisoquinolin-4-yl)pyridino[4,3-d]pyrimidin-4-yl)-1-(2-fluoroacryloyl)piperazin-2-yl)acetonitrile] | 80 nM | 
C=C(F)C(=O)N1CCN(c2nc(OCC3(CN4CCCC4)CC3)nc3c(F)c(-c4cccc5c4C4CC4C5)ccc23)C[C@@H]1CC#N (single isomer, unassigned) [Example 871] |  | 9 nM
C=CC(=O)N1CC[C@H]2[C@H]1CN2c1nc(OCC23CCCN2CCC3)nc2cc(-c3cccc4ccc(F)c(Cl)c34)c(Cl)cc12 [Example 472, 1-((1R,5S)-6-(6-chloro-7-(8-chloro-7-fluoronaphthalen-1-yl)-2-((tetrahydro-1H-pyrrolizin-7a(5H)-yl)methoxy)quinazolin-4-yl)-2,6-diazabicyclo[3.2.0]hept-2-yl)prop-2-en-1-one] | 40 nM | 
C=CC(=O)N1CC[C@@H]2[C@H]1CN2c1nc(OCC23CCCN2CCC3)nc2c(F)c(-c3cncc4c3CCCC4)ncc12 [Example 45, 1-((1R,5R)-6-(8-fluoro-2-((tetrahydro-1H-pyrrolizin-7a(5H)-yl)methoxy)-7-(5,6,7,8-tetrahydroisoquinoline-4-yl)pyridino[4,3-d]pyrimidin-4-yl)-2,6-diazabicyclo[3.2.0]hept-2-yl)prop-2-en-1-one] | 10 nM | 
C=CC(=O)N1CCN(c2nc(OC[C@@H]3CCCN3C)nc3c(F)c(-c4cccc5ccc(F)c(Cl)c45)ccc23)C[C@@H]1CC#N [Example 359, 2-((S)-1-acryloyl-4-(7-(8-chloro-7-fluoronaphthalen-1-yl)-8-fluoro-2-(((S)-1-methylpyrrolidin-2-yl)methoxy)quinazolin-4-yl)piperazin-2-yl)acetonitrile] | 3 nM | 
